Experimental data from PMC8052950 (Journal of medicinal chemistry, 2021).
Where a name gives a salt, the structure may show the parent alone.

Columns and labels:
[1] = molecular target: WVpro (West Nile virus protease) (West Nile virus, UniProt Q9Q6P4); assay: WVpro enzyme inhibition assay; type: biochemical
[2] = molecular target: DV2pro (protease of dengue serotype-2) (Dengue virus type 2, UniProt P29990); assay: DV2pro enzyme inhibition assay; type: biochemical, dengue virus serotype-2; settings: read-out: IC50 against DV2pro; standard errors <30%
[3] = system: ZIKV-FLR; assay: Cellular anti-ZIKV activity in U87 cells; type: cell-based, Zika virus; settings: for EC68 against ZIKV: in cells, values printed in nM in the text
[4] = system: 5 selected human proteases; settings: at 10 μM; cited from earlier work
[5] = system: ZIKV; settings: cited from earlier work
[6] = system: ZIKV strain HN16; settings: comparable activities; cited from earlier work
[7] = system: dengue virus (serotype-2, strain K0049); settings: comparable activities; cited from earlier work

Sequence of WVpro (West Nile virus protease) (Q9Q6P4 1424-1470): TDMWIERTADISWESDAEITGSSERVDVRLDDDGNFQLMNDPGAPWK
Sequence of WVpro (West Nile virus protease) (Q9Q6P4 1506-1675): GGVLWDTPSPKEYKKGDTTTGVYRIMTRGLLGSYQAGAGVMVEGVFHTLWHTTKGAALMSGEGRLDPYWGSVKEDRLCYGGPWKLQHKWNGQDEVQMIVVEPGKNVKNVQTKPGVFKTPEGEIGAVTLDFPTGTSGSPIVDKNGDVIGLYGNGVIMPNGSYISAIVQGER
Sequence of DV2pro (protease of dengue serotype-2) (P29990 1476-1645): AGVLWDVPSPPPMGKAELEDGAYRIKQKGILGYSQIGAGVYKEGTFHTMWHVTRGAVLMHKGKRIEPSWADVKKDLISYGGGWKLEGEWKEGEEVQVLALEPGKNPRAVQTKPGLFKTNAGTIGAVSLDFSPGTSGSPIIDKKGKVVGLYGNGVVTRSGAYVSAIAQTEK
Sequence of DV2pro (protease of dengue serotype-2) (P29990 1394-1440): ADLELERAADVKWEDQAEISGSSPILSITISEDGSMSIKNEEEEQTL

For `NCc1ccc(-c2ncc(OCC3CCNCC3)nc2-c2ccc(Oc3ccccc3)cc2)cc1` [Compound 44, (4-(3-(4-Phenoxyphenyl)-5-(piperidin-4-ylmethoxy)pyrazin-2-yl)phenyl)methanamine hydrochloride], which IC50 [1] is on record?
The IC50 was greater than 50 µM.

Which IC50 [1] does the source give for `NCc1ccc(-c2ncc(OCC3CCNCC3)nc2-c2ccc(-c3ccncc3)cc2)cc1` [Compound 45, (4-(5-(Piperidin-4-ylmethoxy)-3-(4-(pyridin-4-yl)phenyl)pyrazin-2-yl)phenyl)methanamine hydrochloride] here?
Its IC50 is greater than 50 µM.

With `NCc1ccc(-c2cc(CNCC3CCNCC3)sc2-c2ccc(CN)cc2)cc1` [Compound 20, ((5-(((Piperidin-4-ylmethyl)amino)methyl)thiophene-2,3-diyl)bis(4,1-phenylene))dimethanamine Hydrochloride] as the molecule, how does the IC50 [2] read?
Its IC50 is greater than 50 µM.

What about the IC50 [1] of the same molecule?
The IC50 was greater than 50 µM.

With `NCc1ccc(-c2ncc(OCC3CCNCC3)nc2-c2ccc(O)cc2)cc1` [Compound 50, 4-(3-(4-(Aminomethyl)phenyl)-6-(piperidin-4-ylmethoxy)pyrazin-2-yl)phenol hydrochloride] as the molecule, how does the “Inhibition of ZIKV replication” value ([3]; at 10 μM) read?
The value was “did not inhibit ZIKV replication”.

Which “EC68 against ZIKV” value [3] does the source give for `NCc1ccc(-c2ncc(OCC3CCNCC3)nc2-c2ccc(C3CCOCC3)cc2)cc1` [Compound 103, (4-(5-(Piperidin-4-ylmethoxy)-3-(4-(tetraHydro-2H-pyran-4-yl)phenyl)pyrazin-2-yl)phenyl)methanamine hydrochloride] here?
The value was 300 to 600 nM.

For `NCc1ccc(-c2ncc(OCC3CCNCC3)nc2-c2ccc(-c3cn[nH]c3)cc2)cc1` [Compound 46], which IC50 [1] is on record?
The IC50 was 0.12 µM.

For `Brc1ccc(-c2ncc(OCC3CCNCC3)nc2-c2ccc(Br)cc2)cc1` [Compound 1, 2,3-bis(4-Bromophenyl)-5-(piperidin-4-ylmethoxy)pyrazine hydrochloride], which IC50 [1] is on record?
Its IC50 is greater than 50 µM.

For `NCc1ccc(-c2ncc(OCC3CCNCC3)nc2-c2ccc(-c3ccoc3)cc2)cc1` [Compound 47, (4-(3-(4-(Furan-3-yl)phenyl)-5-(piperidin-4-ylmethoxy)pyrazin-2-yl)phenyl)methanamine hydrochloride], which EC68 ([3]; Zika virus, U-87 MG, 48 h, read-out: ZIKV-FLR EC68) is on record?
The EC68 was 0.3 to 0.6 µM.

What about the “EC68 against ZIKV” value [3] of the same molecule?
The value was 300 to 600 nM.

And the “Inhibition of 5 selected human proteases” value [4]?
The value was “did not inhibit”.

What about the “In vivo antiviral activity” value ([5]; mouse model of ZIKV infection) of the same molecule?
The value was “strong in vivo antiviral activity”.

What about the “Survival of the experimental mice” value ([5]; mouse, 30 mg/kg for 3 days) of the same molecule?
Its value is “significantly prolonged survivals”.

What about the “Inhibition of replication of ZIKV strain HN16” value [6] of the same molecule?
Its value is “potently inhibit replication”.

And the “Inhibition of replication of dengue virus (serotype-2, strain K0049)” value [7]?
Its value is “potently inhibit replication”.
